How the values were obtained:
SW982 cells = experiment: MTT cell viability assay, SW982 synovial sarcoma; assay type: cell-based, human; details: 48 h
Protocol: RH30 human aRMS cells (kindly provided by Associate Professor Judith Davie, Southern Illinois University), AX-OH-1 human aRMS and FL-OH-1 human eRMS cells (kindly provided by Professor Stefan Bath, University of Cape Town) were cultured in Roswell Park Memorial Institute Medium (RPMI)-1640 (Sigma Aldrich, Missouri, USA). […] Cell morphology was monitored using an Olympus CKX41 inverted microscope (MSAC Ltd, UK) and imaged with an EVOS™ XL AMEX1000 Core Imaging System (Thermo Fisher Scientific, Massachusetts, USA).
Cells were seeded in 96-well plates and treated the next day with a range of AJ-5 concentrations (0.1–1.0 μM) or vehicle ([…]) for 48 h. Cell viability was measured using the 3-(4,5-dimethylthiazol-2-yl)-2,5-diphenyl-trazolium bromide (MTT) assay (11465007001; Sigma Aldrich) according to the manufacturer’s instructions. Mean cell viability was calculated as a percentage of the mean vehicle control. At least three independent experiments in quadruplicate were performed from which the half maximal inhibitory concentration (IC50) was determined using GraphPad Prism version 6.0 (GraphPad Software, California, USA). The selectivity index (SI) was determined by dividing the IC50 of a normal cell line by the IC50 of a cancer cell line.

RH30 and RD cells = experiment: Cell cycle analysis (FACS, PI) and cyclin western blots; assay type: cell-based, human
Protocol: Cells were lysed at 4 °C in whole-cell lysis buffer (0.125 M Tris-HCl pH 6.8, 4% SDS, 0.2% glycerol, 0.1% β-mercaptoethanol and a pinch of bromophenol blue) and boiled for 10 min. Proteins were resolved by SDS-PAGE (6–15% gels) and transferred to Hybond ECL membranes (Amersham, UK). The membranes were incubated with primary antibodies: rabbit polyclonal antibodies to phospho-histone H2A.X (Ser139) (#2577), phospho-chk2 (Thr68) (#221), phospho-p38 MAPK (Thr180/Tyr182) (#9211), cleaved caspase-3 (Asp175) (#9661), PARP (#9542), caspase-9 (#9502), LC3B (#2775), p38 MAPK (#9212), rabbit monoclonal antibody to cleaved caspase-7 (Asp198) (D6H1) (#8438), mouse monoclonal antibodies to phospho-ATM (Ser1981) (D6H9) (#5883), Cyclin B1 (V152) (#4135), Caspase-8 (1C12) (#9746), SQSTM1/p62 (D5L7G) (#88588) from Cell Signaling Technology (Massachusetts, USA); mouse monoclonal antibody to p53 (DO-1) (sc-126), rabbit polyclonal antibodies to p21 (C-19) (sc-397), cyclin A (H-432) (sc-751), cyclin B1 (H-433)(sc-752), PARP-1 (H-250) (sc-7150) from Santa Cruz Biotechnology (Texas, USA); rabbit polyclonal antibody to p38 MAP kinase (M0800) from Sigma Aldrich. […] Densitometry readings were obtained using ImageJ v1.50i[58] and protein expression levels were represented as a ratio of protein of interest/p38 loading control normalized to the vehicletreated control sample where appropriate. […]

C2C12 cells = experiment: Clonogenic assay, C2C12 myoblasts; assay type: cell-based, mouse; details: 24 h of 0.3 µM
Protocol: Cells were seeded in 6-well plates and treated the following day with IC50, ½ IC50, ¼ IC50 AJ-5 and vehicle. After 24 h, 800–4000 cells were seeded in 35 mm dishes in drug-free medium. Formation of colonies were monitored and after 7–21 days cells were fixed with 3:1 methanol:acetic acid and stained with 0.5% crystal violet (Sigma Aldrich) in 100% methanol. Colonies were imaged and percentage colony area was determined using ImageJ v1.50i[58] and the plugin ColonyArea[59]. Colony area was determined for each drug concentration and expressed as a percentage of vehicletreated control.

CC(C)c1cccc(C(C)C)c1[N+]1=Cc2cccc[c]2[Pd-2]1([Cl])[P+](CC[P+](c1ccccc1)(c1ccccc1)[Pd-2]1([Cl])[c]2ccccc2C=[N+]1c1c(C(C)C)cccc1C(C)C)(c1ccccc1)c1ccccc1 (stereo not shown) [AJ-5]
IC50 (SW982 cells): < 300 nM
Cell cycle progression (RH30 and RD cells; IC50, 24 and 48 h, FACS): induces a G1 cell cycle arrest
Levels of cyclin A and cyclin B (RH30 and RD cells; western blotting): decrease
Ability of C2C12 myoblasts to survive and proliferate (colony area) (C2C12 cells): not significantly hindered
